# From ChEMBL document CHEMBL5055685, “Discovery of the First Potent IDO1/IDO2 Dual Inhibitors: A Promising Strategy for Cancer Immunotherapy” (J Med Chem, 2021)
# Active and inactive are the calls of the source. The calls are words filed in the database; no cut-off is given here.
# How the values were obtained:
# [1] = target: Indoleamine 2,3-dioxygenase 1 (Homo sapiens, UniProt P14902); assay: Inhibition of IDO1 (unknown origin) assessed as reduction in kynurenine formation using L-tryptophan as substrate by methylene blue reagent based assay
# [2] = Tmax in Sprague-Dawley rat at 50 mg/kg, po; type: ADME, organism-based; conditions: in vivo
# [3] = Metabolic stability in rat liver microsomes assessed as rate constant; type: ADME, Microsome
# [4] = Clearance in mouse liver microsomes; type: ADME, Microsome; conditions: read-out: CLH
# [5] = Apparent permeability across apical to basolateral side in human Caco-2 cells assessed as drug recovery; type: ADME, cell-based; conditions: read-out: Drug recovery
# [6] = Apparent permeability across basolateral to apical side in human Caco-2 cells assessed as drug recovery; type: ADME, cell-based; conditions: read-out: Drug recovery
# [7] = Protein binding in human plasma by equilibrium dialysis; type: ADME, cell-free; conditions: read-out: PPB (converted)
# [8] = system: CT26; assay: Antitumor activity against mouse CT26 cells implanted in BALB/c mouse assessed as tumor growth inhibition at 50 mg/kg, ip bid for 28 days by vernier caliper method relative to control; type: functional; conditions: CT26, 672 h, time 28 day, read-out: TGI
# [9] = system: HCT-116; assay: Antitumor immunity in BALB/c mouse xenografted with human HCT-116 cells assessed as increase in IFNgamma in serum by […]; type: functional, cell-based
# [10] = target: Tyrosine-protein kinase ABL2 (Homo sapiens) (UniProt P42684); assay: Inhibition of ABL2 (unknown origin) at 1 uM
# [11] = target: Aurora kinase B (Homo sapiens) (UniProt Q96GD4); assay: Inhibition of Aurora B (unknown origin) at 1 uM
# [12] = target: Aurora kinase C (Homo sapiens) (UniProt Q9UQB9); assay: Inhibition of Aurora C (unknown origin) at 1 uM
# [13] = target: Bone morphogenetic protein receptor type-2 (Homo sapiens) (UniProt Q13873); assay: Inhibition of BMPR2 (unknown origin) at 1 uM
# [14] = target: Calcium/calmodulin-dependent protein kinase type 1G (Homo sapiens) (UniProt Q96NX5); assay: Inhibition of CAMK1G (unknown origin) at 1 uM
# [15] = target: Calcium/calmodulin-dependent protein kinase type II subunit beta (Homo sapiens) (UniProt Q13554); assay: Inhibition of CAMK2B (unknown origin) at 1 uM
# [16] = target: Cyclin-dependent kinase 1/cyclin B1 (Homo sapiens) (UniProt P06493+P14635); assay: Inhibition of CDK1/cyclinB (unknown origin) at 1 uM; type: protein-complex assay
# [17] = target: Cyclin-dependent kinase 14/Cyclin-Y (Homo sapiens) (UniProt O94921+Q8ND76); assay: Inhibition of CDK14/cyclin-Y (unknown origin) at 1 uM; type: protein-complex assay
# [18] = target: CDK18/Cyclin Y (Homo sapiens) (UniProt Q07002+Q8ND76); assay: Inhibition of CDK18/cyclin-Y (unknown origin) at 1 uM; type: protein-complex assay
# [19] = target: Casein kinase I isoform gamma-1 (Homo sapiens) (UniProt Q9HCP0); assay: Inhibition of CK1gamma1 (unknown origin) at 1 uM
# [20] = target: Casein kinase I isoform gamma-2 (Homo sapiens) (UniProt P78368); assay: Inhibition of CK1gamma2 (unknown origin) at 1 uM
# [21] = target: Megakaryocyte-associated tyrosine-protein kinase (Homo sapiens) (UniProt P42679); assay: Inhibition of CTK (unknown origin) at 1 uM
# [22] = target: Myotonin-protein kinase (Homo sapiens) (UniProt Q09013); assay: Inhibition of DMPK (unknown origin) at 1 uM
# [23] = target: Dual specificity tyrosine-phosphorylation-regulated kinase 1A (Homo sapiens) (UniProt Q13627); assay: Inhibition of DYRK1A (unknown origin) at 1 uM
# [24] = target: Ephrin type-A receptor 6 (Homo sapiens) (UniProt Q9UF33); assay: Inhibition of EPHA6 (unknown origin) at 1 uM
# [25] = target: Ephrin type-B receptor 1 (Homo sapiens) (UniProt P54762); assay: Inhibition of EPHB1 (unknown origin) at 1 uM
# [26] = target: Fibroblast growth factor receptor 2 (Homo sapiens) (UniProt P21802); assay: Inhibition of FGFR2 (unknown origin) at 1 uM
# [27] = target: Beta-adrenergic receptor kinase 1 (Homo sapiens) (UniProt P25098); assay: Inhibition of GRK2 (unknown origin) at 1 uM
# [28] = target: G protein-coupled receptor kinase 5 (Homo sapiens) (UniProt P34947); assay: Inhibition of GRK5 (unknown origin) at 1 uM
# [29] = target: Glycogen synthase kinase-3 beta (Homo sapiens) (UniProt P49841); assay: Inhibition of GSK3B (unknown origin) at 1 uM
# [30] = target: Inhibitor of nuclear factor kappa-B kinase subunit epsilon (Homo sapiens) (UniProt Q14164); assay: Inhibition of IKKepsilon (unknown origin) at 1 uM
# [31] = target: Mitogen-activated protein kinase kinase kinase kinase 5 (Homo sapiens) (UniProt Q9Y4K4); assay: Inhibition of KHS (unknown origin) at 1 uM
# [32] = target: Serine/threonine-protein kinase ICK (Homo sapiens) (UniProt Q9UPZ9); assay: Inhibition of LCK2 (unknown origin) at 1 uM
# [33] = target: MAP/microtubule affinity-regulating kinase 3 (Homo sapiens) (UniProt P27448); assay: Inhibition of MARK3 (unknown origin) at 1 uM
# [34] = target: Dual specificity mitogen-activated protein kinase kinase 3 (Homo sapiens) (UniProt P46734); assay: Inhibition of MEK3 (unknown origin) at 1 uM
# [35] = target: Myosin-IIIb (Homo sapiens) (UniProt Q8WXR4); assay: Inhibition of MYO3B (unknown origin) at 1 uM
# [36] = target: Serine/threonine-protein kinase Nek2 (Homo sapiens) (UniProt P51955); assay: Inhibition of NEK2 (unknown origin) at 1 uM
# [37] = target: Serine/threonine-protein kinase PAK 5 (Homo sapiens) (UniProt Q9P286); assay: Inhibition of PAK5 (unknown origin) at 1 uM
# [38] = target: Protein kinase C beta type (Homo sapiens) (UniProt P05771); assay: Inhibition of PKCb1 (unknown origin) at 1 uM
# [39] = target: Protein kinase C zeta type (Homo sapiens) (UniProt Q05513); assay: Inhibition of PKCzeta (unknown origin) at 1 uM
# [40] = target: cGMP-dependent protein kinase 1 (Homo sapiens) (UniProt Q13976); assay: Inhibition of PKG1alpha (unknown origin) at 1 uM
# [41] = target: Serine/threonine-protein kinase PLK4 (Homo sapiens) (UniProt O00444); assay: Inhibition of PLK4 (unknown origin) at 1 uM
# [42] = target: Serine/threonine-protein kinase Sgk1 (Homo sapiens) (UniProt O00141); assay: Inhibition of SGK1 (unknown origin) at 1 uM
# [43] = target: Serine/threonine-protein kinase Sgk3 (Homo sapiens) (UniProt Q96BR1); assay: Inhibition of SGK3 (unknown origin) at 1 uM
# [44] = target: Tyrosine-protein kinase SYK (Homo sapiens) (UniProt P43405); assay: Inhibition of SYK (unknown origin) at 1 uM
# [45] = target: 3-phosphoinositide-dependent protein kinase 1 (Homo sapiens) (UniProt O15530); assay: Inhibition of PDK1 (unknown origin) at 1 uM
# cGMP-dependent protein kinase 1 (Homo sapiens), sequence (Q13976 whole entry): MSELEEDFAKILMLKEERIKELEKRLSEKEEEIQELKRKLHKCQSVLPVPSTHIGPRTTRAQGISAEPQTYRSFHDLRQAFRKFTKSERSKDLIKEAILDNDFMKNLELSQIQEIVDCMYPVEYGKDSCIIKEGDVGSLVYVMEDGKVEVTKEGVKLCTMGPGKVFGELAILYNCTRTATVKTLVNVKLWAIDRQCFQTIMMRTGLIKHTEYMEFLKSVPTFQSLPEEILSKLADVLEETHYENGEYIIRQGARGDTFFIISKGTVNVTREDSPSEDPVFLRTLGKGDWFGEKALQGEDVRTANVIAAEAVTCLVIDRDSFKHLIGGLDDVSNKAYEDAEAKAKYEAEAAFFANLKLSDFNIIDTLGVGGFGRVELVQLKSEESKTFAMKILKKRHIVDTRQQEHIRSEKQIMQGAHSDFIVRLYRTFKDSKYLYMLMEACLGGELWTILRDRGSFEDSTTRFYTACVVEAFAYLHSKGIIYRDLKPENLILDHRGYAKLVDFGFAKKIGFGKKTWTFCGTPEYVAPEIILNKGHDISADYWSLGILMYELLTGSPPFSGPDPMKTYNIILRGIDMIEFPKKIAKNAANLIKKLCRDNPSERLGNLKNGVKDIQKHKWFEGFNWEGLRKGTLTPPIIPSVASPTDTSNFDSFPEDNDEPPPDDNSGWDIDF
# Myotonin-protein kinase (Homo sapiens), sequence (Q09013 whole entry): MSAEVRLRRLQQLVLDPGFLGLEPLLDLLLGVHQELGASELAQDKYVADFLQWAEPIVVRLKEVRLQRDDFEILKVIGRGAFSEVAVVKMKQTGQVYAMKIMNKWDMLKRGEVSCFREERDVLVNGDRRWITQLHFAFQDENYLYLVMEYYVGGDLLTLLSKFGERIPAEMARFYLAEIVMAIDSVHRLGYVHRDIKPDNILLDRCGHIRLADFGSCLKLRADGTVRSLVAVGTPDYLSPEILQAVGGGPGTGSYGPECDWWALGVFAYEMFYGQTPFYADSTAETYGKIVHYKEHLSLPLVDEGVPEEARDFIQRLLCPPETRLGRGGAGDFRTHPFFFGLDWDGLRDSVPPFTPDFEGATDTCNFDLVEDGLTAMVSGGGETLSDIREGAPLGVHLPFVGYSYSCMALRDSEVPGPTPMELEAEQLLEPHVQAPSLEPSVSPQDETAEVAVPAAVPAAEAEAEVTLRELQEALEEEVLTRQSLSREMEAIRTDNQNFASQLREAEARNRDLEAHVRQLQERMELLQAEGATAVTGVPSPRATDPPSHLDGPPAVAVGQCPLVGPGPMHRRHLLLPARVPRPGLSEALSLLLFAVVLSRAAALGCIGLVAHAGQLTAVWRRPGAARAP
# Calcium/calmodulin-dependent protein kinase type II subunit beta (Homo sapiens), sequence (Q13554 whole entry): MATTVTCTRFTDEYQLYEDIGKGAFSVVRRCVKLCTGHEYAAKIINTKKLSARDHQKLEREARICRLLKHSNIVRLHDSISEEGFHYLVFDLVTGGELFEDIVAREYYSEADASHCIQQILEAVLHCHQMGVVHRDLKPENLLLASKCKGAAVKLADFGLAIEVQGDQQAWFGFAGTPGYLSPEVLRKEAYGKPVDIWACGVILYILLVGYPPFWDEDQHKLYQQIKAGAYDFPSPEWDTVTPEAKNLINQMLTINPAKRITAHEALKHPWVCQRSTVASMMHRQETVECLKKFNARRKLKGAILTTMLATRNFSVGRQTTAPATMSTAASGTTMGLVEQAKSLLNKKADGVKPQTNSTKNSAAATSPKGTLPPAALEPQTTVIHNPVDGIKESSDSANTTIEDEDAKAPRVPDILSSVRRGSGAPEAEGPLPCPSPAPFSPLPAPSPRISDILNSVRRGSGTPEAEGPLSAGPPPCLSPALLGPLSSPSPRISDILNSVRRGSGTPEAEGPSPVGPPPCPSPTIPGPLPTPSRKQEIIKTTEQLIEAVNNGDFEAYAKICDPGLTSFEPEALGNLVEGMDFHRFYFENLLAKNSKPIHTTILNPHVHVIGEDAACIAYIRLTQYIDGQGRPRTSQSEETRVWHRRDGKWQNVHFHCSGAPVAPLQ
# Ephrin type-B receptor 1 (Homo sapiens), sequence (P54762 whole entry): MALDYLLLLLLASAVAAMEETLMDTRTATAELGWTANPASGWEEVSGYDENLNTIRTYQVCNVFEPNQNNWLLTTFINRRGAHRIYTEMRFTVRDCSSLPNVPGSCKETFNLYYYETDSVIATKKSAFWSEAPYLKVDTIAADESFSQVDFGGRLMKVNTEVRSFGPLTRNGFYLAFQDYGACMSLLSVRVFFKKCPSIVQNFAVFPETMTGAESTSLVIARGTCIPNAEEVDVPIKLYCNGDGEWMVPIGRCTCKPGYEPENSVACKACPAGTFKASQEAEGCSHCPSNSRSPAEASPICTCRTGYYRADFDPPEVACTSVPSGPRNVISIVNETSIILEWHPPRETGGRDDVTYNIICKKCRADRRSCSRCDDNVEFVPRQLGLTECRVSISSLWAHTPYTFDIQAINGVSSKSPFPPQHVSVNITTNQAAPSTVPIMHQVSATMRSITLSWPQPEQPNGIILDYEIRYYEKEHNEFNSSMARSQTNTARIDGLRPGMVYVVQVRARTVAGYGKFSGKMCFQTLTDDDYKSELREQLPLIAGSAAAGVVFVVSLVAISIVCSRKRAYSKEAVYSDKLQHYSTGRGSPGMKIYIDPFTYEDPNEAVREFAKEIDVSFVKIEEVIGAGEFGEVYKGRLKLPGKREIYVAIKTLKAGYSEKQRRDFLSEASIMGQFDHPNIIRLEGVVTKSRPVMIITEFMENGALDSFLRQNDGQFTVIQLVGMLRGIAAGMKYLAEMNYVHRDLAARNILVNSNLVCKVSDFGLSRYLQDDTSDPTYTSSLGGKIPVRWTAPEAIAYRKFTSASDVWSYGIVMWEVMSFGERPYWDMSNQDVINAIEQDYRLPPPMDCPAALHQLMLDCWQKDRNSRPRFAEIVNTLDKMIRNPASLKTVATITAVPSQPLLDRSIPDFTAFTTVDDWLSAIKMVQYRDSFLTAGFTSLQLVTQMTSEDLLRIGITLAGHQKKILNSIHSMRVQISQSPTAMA
# G protein-coupled receptor kinase 5 (Homo sapiens), sequence (P34947 whole entry, looked up): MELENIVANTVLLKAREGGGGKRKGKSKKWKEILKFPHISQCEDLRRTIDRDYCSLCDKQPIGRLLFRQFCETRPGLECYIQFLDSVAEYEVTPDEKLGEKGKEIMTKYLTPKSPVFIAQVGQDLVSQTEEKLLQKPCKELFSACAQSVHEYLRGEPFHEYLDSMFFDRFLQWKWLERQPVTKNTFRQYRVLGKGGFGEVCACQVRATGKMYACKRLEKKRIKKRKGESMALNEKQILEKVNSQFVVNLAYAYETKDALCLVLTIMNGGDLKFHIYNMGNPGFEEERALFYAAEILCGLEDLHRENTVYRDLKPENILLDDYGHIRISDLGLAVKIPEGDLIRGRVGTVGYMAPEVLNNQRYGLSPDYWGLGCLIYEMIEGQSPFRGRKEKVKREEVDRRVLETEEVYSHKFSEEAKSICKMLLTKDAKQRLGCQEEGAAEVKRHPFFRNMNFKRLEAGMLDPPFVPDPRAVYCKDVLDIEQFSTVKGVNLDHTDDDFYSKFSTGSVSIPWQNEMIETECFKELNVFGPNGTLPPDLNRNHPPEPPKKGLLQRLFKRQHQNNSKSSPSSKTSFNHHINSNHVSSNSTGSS
# Aurora kinase C (Homo sapiens), sequence (Q9UQB9 whole entry): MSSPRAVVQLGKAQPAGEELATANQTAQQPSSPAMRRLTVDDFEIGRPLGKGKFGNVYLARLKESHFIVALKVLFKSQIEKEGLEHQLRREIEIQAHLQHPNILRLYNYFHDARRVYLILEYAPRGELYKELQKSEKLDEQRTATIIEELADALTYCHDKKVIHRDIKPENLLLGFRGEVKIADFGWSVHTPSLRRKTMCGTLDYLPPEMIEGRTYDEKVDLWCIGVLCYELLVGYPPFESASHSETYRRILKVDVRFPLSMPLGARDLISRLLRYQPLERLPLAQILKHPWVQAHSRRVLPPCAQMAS
# Serine/threonine-protein kinase PAK 5 (Homo sapiens), sequence (Q9P286 whole entry, looked up): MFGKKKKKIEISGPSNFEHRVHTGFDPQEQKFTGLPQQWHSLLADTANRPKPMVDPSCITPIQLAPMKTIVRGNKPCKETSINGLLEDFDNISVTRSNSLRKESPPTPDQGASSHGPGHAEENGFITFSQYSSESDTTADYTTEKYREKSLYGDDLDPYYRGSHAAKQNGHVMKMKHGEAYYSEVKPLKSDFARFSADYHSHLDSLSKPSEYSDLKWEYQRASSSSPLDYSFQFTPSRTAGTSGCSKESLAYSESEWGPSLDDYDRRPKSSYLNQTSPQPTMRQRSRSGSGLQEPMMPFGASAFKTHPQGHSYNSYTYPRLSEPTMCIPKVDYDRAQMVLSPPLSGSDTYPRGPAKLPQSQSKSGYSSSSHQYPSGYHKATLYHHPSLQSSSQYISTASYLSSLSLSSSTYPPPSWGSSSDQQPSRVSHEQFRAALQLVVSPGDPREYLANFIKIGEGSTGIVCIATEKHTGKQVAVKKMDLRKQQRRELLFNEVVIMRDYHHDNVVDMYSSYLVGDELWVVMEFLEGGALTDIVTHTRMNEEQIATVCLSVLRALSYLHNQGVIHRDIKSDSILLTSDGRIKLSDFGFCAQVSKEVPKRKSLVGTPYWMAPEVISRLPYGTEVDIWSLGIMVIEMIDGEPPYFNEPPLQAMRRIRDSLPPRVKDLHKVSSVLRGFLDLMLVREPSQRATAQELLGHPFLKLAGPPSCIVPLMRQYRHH
# Casein kinase I isoform gamma-1 (Homo sapiens), sequence (Q9HCP0 whole entry, looked up, canonical isoform): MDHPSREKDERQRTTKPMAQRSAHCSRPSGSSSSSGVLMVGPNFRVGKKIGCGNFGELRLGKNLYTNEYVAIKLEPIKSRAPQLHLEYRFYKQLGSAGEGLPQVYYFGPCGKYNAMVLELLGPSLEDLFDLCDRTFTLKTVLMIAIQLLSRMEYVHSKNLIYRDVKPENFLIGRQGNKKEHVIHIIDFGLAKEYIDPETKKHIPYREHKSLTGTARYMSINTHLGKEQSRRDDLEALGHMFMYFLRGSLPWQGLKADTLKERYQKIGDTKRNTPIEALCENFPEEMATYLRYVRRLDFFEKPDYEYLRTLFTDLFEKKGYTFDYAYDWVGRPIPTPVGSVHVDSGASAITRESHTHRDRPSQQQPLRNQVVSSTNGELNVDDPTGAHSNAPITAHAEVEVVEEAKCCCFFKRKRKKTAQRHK
compound,measurement,setting,value
OCCOCc1cn(CCNc2nonc2/C(=N/O)Nc2ccc(F)c(Br)c2)nn1,IC50,[1],0.028 µM
same,Tmax,[2],1.3 h
same,k el,[3],0.000545 s⁻¹
same,microsomal CLint,[4],32.2 µL/min/mg
same,recovery,[5],91.1%
same,recovery,[6],112%
same,fraction unbound,[7],0.0411
same,inhibition in vivo at 50 mg/kg,[8],69.7%
same,Activity,[9],Active
same,inhibition,[10],inactive
same,inhibition,[11],inactive
same,inhibition,[12],inactive
same,inhibition,[13],inactive
same,inhibition,[14],inactive
same,inhibition,[15],inactive
same,inhibition,[16],inactive
same,inhibition,[17],inactive
same,inhibition,[18],inactive
same,inhibition,[19],inactive
same,inhibition,[20],inactive
same,inhibition,[21],inactive
same,inhibition,[22],inactive
same,inhibition,[23],inactive
same,inhibition,[24],inactive
same,inhibition,[25],inactive
same,inhibition,[26],inactive
same,inhibition,[27],inactive
same,inhibition,[28],inactive
same,inhibition,[29],inactive
same,inhibition,[30],inactive
same,inhibition,[31],inactive
same,inhibition,[32],inactive
same,inhibition,[33],inactive
same,inhibition,[34],inactive
same,inhibition,[35],inactive
same,inhibition,[36],inactive
same,inhibition,[37],inactive
same,inhibition,[38],inactive
same,inhibition,[39],inactive
same,inhibition,[40],inactive
same,inhibition,[41],inactive
same,inhibition,[42],inactive
same,inhibition,[43],inactive
same,inhibition,[44],inactive
same,inhibition,[45],inactive
